Results: US20080312129A1, “Use of Mas G-Protein-Coupled Receptor Agonists and Antagonists, as Apoptotic-Activity Modulators for Study, Prevention and Treatment of Diseases” (priority 2005, published 2008)

Legend:
[1] = test system: human endothelial cells of the thoracic aorta (HAEC); experiment: Western blot, phosphorylation of eNOS stimulatory site (S1177) in HAEC; format: cell-based; conditions: FIG. 13
Experimental: (§1) CHO cells transfected with the Mas receptor (CHO-Mas) and human endothelial cells of the thoracic aorta (HAEC) were cultured until confluence of approximately 80% and processed with a lise buffer for Western blotting. After the processing, the protein concentration was determined and the lisates were subjected to electrophoresis in polyacrylamide/SDS gel and then subjected to transfer to the nitrocellulose membrane. The membranes were incubated with specific antibodies (anti-phospho-Akt, anti-Akt, anti-phospho-eNOS and anti-β-actin). The bands were viewed after development by chemoluminescence.

[2] = test system: human aorta endothelial cells (HAEC); experiment: Western blot, phosphorylation of c-SRC stimulated by Ang II in HAEC; format: cell-based; conditions: FIG. 15, 4 experiments, b15 words it as inhibiting c-SRC
Experimental: (§2) In order to quantify the activity of the NAD(P)H Oxtidase, human aorta endothelial cells (HAEC) were stimulated with angiotensin II (10^−7M) for 10 minutes. In some experiments, the cells were pre-exposed to the AT1 receptor antagonist Ibesartan (10^−5M), for 30 minutes or to Ang-(1-7) (10^−7 M) for 15 minutes. The chemoluminescence derived from lucigenin was used to determine the activity of NAD(P)H oxidase in the homogenate of the cells. In order to quantify the modulation of Ang-(1-7) in the phosphorylation of c-SRC, the HAECs were cultured until confluence of about 80% was reached and processed with lise buffer for Western blotting. After the processing, the protein concentration was determined and the lisates were subjected to gel electroforesis of polyacrylamide/SDS and then to the transfer to nitrocellulose membrane. The membranes were incubated with specific antibodies (anti-phospho-c-SRC, anti-c-SRC). The bands were visualized after development by chemoluminescency. […] In some experiments the cells were pre-incubated with Ibesartan (10^−5 M, 30 min). Data are presented with an average±EPM of 4 experiments. *p<0.05 vs control.+p<0.05 vs Ang II+Ang (1-7).

[3] = test system: CHO cells transfected with the Mas receptor (CHO-Mas); experiment: Western blot, phosphorylation of kinase B (Akt) in CHO-Mas cells; format: cell-based; conditions: FIG. 10
Experimental: as §1

NAD(P)H oxidase = NAD(P)H oxidase activity in HAEC homogenate, lucigenin chemoluminescence; format: cell-based, human; conditions: HAEC stimulated by Ang II 10^-7 M 10 min; Ang-(1-7) 10^-7 M 15 min pre-incubation; FIG. 16; direction stated only
Experimental: as §2

awake Wistar rats = experiment: Vasodilating action of acetylcholine (blood pressure) in awake rats; format: in vivo, rat; conditions: endovenous infusion 7.0 pmol/min, n=9, FIG. 14B
Experimental: Wistar rats were subjected, 24 hours before the experiments, to surgical implantation of catheters into the femoral artery (for analysis of blood pressure and heart rate), femoral vein (for injection and infusion of drugs) and left carotid artery (for injection of drugs). The records of blood pressure and heart rate were obtained through a data acquisition system connected to a microcomputer (BIOPAC System, INc.). […] In none of the groups did we observe any alterations in the baroreflex.

[4] = test system: CHO cells transfected with the Mas receptor (CHO-Mas); experiment: Western blot, phosphorylation of eNOS stimulatory site (S1177) in CHO-Mas cells; format: cell-based; conditions: FIG. 11
Experimental: as §1

[5] = test system: human endothelial cells of the thoracic aorta (HAEC); experiment: Western blot, phosphorylation of kinase B (Akt) in HAEC; format: cell-based; conditions: FIG. 12
Experimental: as §1

C57 mice = experiment: Testis histology (apoptosis) and gonadosomatic index after 14-day osmotic mini-pump infusion; format: in vivo, mouse; conditions: 2.5 μg/h s.c. mini-pump, 14 days, n=5, FIG. 17
Experimental: Osmotic mini-pumps (ALZET, model 2002) containing the Mas G-protein-coupled receptor antagonist, A-779 (2.5 μg/h, 14 days, n=5) or carrier (NaCl 0.9%, 1 μl/h, 14 days, n=6) were implanted subscutaneously into the dorsal region of C57 mice under anesthesia with tribromoethanol (2.5%, 1 ml/100 g of body weight). After this period, the animals were weigh and then injected, by intraperitoneal route, with heparin at the concentration of 125 Ul/kg of body weight. After fifteen minutes, these animals were sedated with sodium thiopental (50 mg/kg of body weight) and perfused through the left ventricle. In a first step, it was carried out the washing of the vascular bed with a 0.9% saline solution, under a pressure of approximately 80 mmHg, for about 5 minutes, at room temperature. Immediately after this procedure, the animals were perfused with a 4% glutaraldehyde fixing solution in a phosphate buffer (0.05M, pH 7.2-7-4) for about 25 minutes. After this step, the testicles were removed and separated from the respective epididymis and weighed. From the testicular and body weights, one estimated the gonadosomatic index (percentage relation between the testicular weight and the body weight) for each animal. For the microscopic analyses, fragments of the testis up to about 3 mm thick were collected, which were dipped into glutaraldehyde buffered at 4% for two to four hours, at 4° C. […]

In the case of Angiotensin-(1-7) [Ang-(1-7)], the “phosphorylation of the stimulatory site of eNOS (S1177)” value [1] is reported as “stimulated”, the “effect on phosphorylation of c-SRC stimulated by Ang II” value [2] is reported as “modulating effect” and the “phosphorylation of kinase B (Akt)” value [3] is reported as “stimulation”. The “activity of NAD(P)H oxidase” value (NAD(P)H oxidase) was “inhibits the activity of NAD(P)H oxidase”, the “effect on the vasodilating action of acetylcholine (ACh)” value (awake Wistar rats) was “potentiates the vasodilating action of acetylcholine” and the “phosphorylation of the stimulatory site of endothelial nitric oxide synthase (S1177)” value [4] was “stimulated”. The “phosphorylation of kinase B (Akt)” value [5] was “stimulatory effect”.

“Asp^1-Arg^2-Val^3-Tir^4-Lle^5-His^6-D-Ala^7 [A-779, reference compound]” was tested, and the “effect on Ang-(1-7)-stimulated phosphorylation of kinase B (Akt)” value [3] was “blocked this effect”, the “gonadosomatic index (testicular weight / body weight, percentage) versus control group” value (C57 mice) was “there was not different” and the “number of apoptosis per transverse section of testis versus control group” value (C57 mice) was “larger number of apoptosis per transverse section”. For the same substance, the “effect on Ang-(1-7)-stimulated phosphorylation of kinase B (Akt)” value [5] was “blocked this effect”.
